Like-named read-outs stand apart in the source and are kept apart here.
Molecular target: T1, androgen receptor (AR) (Homo sapiens, UniProt P10275)
T1 sequence (P10275 1-920): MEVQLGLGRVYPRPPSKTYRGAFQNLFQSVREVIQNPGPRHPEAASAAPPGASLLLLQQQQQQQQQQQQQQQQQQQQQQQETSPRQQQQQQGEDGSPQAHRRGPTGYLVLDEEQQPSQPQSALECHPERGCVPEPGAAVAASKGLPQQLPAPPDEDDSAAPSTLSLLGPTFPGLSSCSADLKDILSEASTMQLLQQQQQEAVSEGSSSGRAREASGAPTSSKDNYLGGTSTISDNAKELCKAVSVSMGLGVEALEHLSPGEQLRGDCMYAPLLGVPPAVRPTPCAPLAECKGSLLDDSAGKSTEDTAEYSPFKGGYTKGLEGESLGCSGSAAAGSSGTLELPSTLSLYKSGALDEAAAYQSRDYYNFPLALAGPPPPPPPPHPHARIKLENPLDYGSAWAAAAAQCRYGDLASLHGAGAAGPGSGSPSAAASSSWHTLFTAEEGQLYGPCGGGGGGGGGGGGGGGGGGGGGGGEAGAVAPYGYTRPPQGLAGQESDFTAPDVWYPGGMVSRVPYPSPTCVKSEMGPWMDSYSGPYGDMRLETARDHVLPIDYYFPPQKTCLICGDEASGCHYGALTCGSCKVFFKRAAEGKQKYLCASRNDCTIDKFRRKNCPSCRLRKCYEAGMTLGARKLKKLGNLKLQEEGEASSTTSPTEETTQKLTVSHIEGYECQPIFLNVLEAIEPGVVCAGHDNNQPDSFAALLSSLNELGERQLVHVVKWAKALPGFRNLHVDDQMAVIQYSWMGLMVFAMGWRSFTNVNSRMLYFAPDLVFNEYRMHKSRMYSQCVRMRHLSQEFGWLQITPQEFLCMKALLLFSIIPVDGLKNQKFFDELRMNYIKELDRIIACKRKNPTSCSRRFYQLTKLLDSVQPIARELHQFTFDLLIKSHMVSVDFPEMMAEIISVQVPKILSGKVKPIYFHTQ
Assay: Degradation of androgen receptor (AR) protein in VCaP cells by ELISA
Format: cell-based
Conditions: AR degradation, VCaP cells, 16 h, ELISA; for DC50: read-out: DC50; for Dmax: VCaP, read-out: Dmax (%)

Q: What does the source list for CC1(C)[C@H](Oc2ccc(C#N)c(Cl)c2)C(C)(C)[C@H]1N1Cc2nc(C#CC3CCC(N4CCC5(CN(c6cc7c(cc6F)C(=O)N(C6CCC(=O)NC6=O)C7=O)C5)C4)CC3)ccc2C1=O (some centres unmarked) [Compound 374]?
A: DC50 (Table 3-1): < 10 nM; Dmax (Table 3-1): > 80%

Q: CC1(C)[C@H](Oc2ccc(C#N)c(Cl)c2)C(C)(C)[C@H]1N1Cc2nc(C#CC3CCC(N4CCC5(CN(c6cc7c(cc6F)C(=O)N(C6CCC(=O)NC6=O)C7=O)C5)C4)CC3)ccc2C1=O (some centres unmarked) [Compound 375] was tested. Which DC50 (Table 3-1) did it give?
A: < 10 nM

Q: How did the “Dmax (%)” value (Table 3-1) turn out when CC1(C)[C@H](Oc2ccc(C#N)c(Cl)c2)C(C)(C)[C@H]1N1Cc2nc(C#CC3CCC(N4CC5(CCN(c6ccc7c(c6)C(=O)N(C6CCC(=O)NC6=O)C7=O)CC5)C4)CC3)ccc2C1=O (some centres unmarked) [Compound 376, 2-Chloro-4-((1r,3r)-3-(2-((4-(7-(2-(2,6-dioxopiperidin-3-yl)-1,3-dioxoisoindolin-5-yl)-2,7-diazaspiro[3.5]nonan-2-yl)cyclohexyl)ethynyl)-S-oxo-5,7-dihydro-pyrrolo[3,4-b]pyridin-6-yl)-2,2,4,4-tetramethylcyclobutoxy) benzonitrile] was run?
A: ++ (60%-40%)

Q: And the DC50 (Table 3-1)?
A: > 300 nM

Q: Which “Dmax (%)” value (Table 3-1) does the source give for CC1(C)[C@H](Oc2ccc(C#N)c(Cl)c2)C(C)(C)[C@H]1N1Cc2nc(C#CC3CCC(N4CC5(CCN(c6ccc7c(c6)C(=O)N(C6CCC(=O)NC6=O)C7=O)CC5)C4)CC3)ccc2C1=O (some centres unmarked) [Compound 377, 2-Chloro-4-((1r,3r)-3-(2-((4-(7-(2-(2,6-dioxopiperidin-3-yl)-1,3-dioxoisoindolin-5-yl)-2,7-diazaspiro[3.5]nonan-2-yl)cyclohexyl)ethynyl)-5-oxo-5,7-dihydro-pyrrolo[3,4-b]pyridin-6-yl)-2,2,4,4-tetramethylcyclobutoxy) benzonitrile] here?
A: ++++ (>80%)

Q: And the DC50 (Table 3-1)?
A: < 10 nM

Q: Which results are given for CC1(C)[C@H](Oc2ccc(C#N)c(Cl)c2)C(C)(C)[C@H]1N1Cc2nc(C#CC3CCC(N4CC5(CCN(c6cc7c(cc6F)C(=O)N(C6CCC(=O)NC6=O)C7=O)CC5)C4)CC3)ccc2C1=O (some centres unmarked) [Compound 378, 2-Chloro-4-((1 r,3r)-3-(2-((4-(7-(2-(2,6-dioxopiperidin-3-yl)-6-fluoro-1,3-dioxoisoindolin-5-yl)-2,7-diazaspiro[3.5]nonan-2-yl)cyclohexyl)ethynyl)-5-oxo-5,7-dihydro-pyrrolo[3,4-b]pyridin-6-yl)-2,2,4,4-tetramethylcyclobutoxy) benzonitrile]?
A: Dmax (%) (Table 3-1): + (<40%); DC50 (Table 3-1): > 300 nM

Q: CC1(C)[C@H](Oc2ccc(C#N)c(Cl)c2)C(C)(C)[C@H]1N1Cc2nc(C#CC3CCC(N4CC5(CCN(c6cc7c(cc6F)C(=O)N(C6CCC(=O)NC6=O)C7=O)CC5)C4)CC3)ccc2C1=O (some centres unmarked) [Compound 379, 2-Chloro-4-((1r,3r)-3-(2-((4-(7-(2-(2,6-dioxopiperidin-3-yl)-6-fluoro-1,3-dioxoisoindolin-5-yl)-2,7-diazaspiro[3.5]nonan-2-yl)cyclohexyl)ethynyl)-5-oxo-5,7-dihydro-pyrrolo[3,4-b]pyridin-6-yl)-2,2,4,4-tetramethylcyclobutoxy) benzonitrile] was tested. Which “Dmax (%)” value (Table 3-1) did it give?
A: ++++ (>80%)

Q: What about the DC50 (Table 3-1) of the same compound?
A: 10 to 100 nM

Q: Which DC50 (Table 3-1) does the source give for CC1(C)[C@H](Oc2ccc(C#N)c(Cl)c2)C(C)(C)[C@H]1N1Cc2nc(C#C[C@H]3CC[C@H](N4CCN(c5cc6c(cc5F)C(=O)N(C5CCC(=O)NC5=O)C6=O)CC4)CC3)cnc2C1=O (some centres unmarked) [Compound 380] here?
A: 10 to 100 nM

Q: And the Dmax (Table 3-1)?
A: 60 to 80%

Q: How did the DC50 (Table 3-1) turn out when CC1(C)[C@H](Oc2ccc(C#N)c(Cl)c2)C(C)(C)[C@H]1N1Cc2nc(C#C[C@H]3CC[C@H](N4CCN(c5ccc6c(c5)C(=O)N(C5CCC(=O)NC5=O)C6=O)CC4)CC3)cnc2C1=O (some centres unmarked) [Compound 381] was run?
A: 10 to 100 nM

Q: And the Dmax (Table 3-1)?
A: > 80%

Q: How did the DC50 (Table 3-1) turn out when CC1(C)[C@H](Oc2ccc(C#N)c(Cl)c2)C(C)(C)[C@H]1N1Cc2nc(N3CCC(CN4CCN(c5cc6c(cc5F)C(=O)N(C5CCC(=O)NC5=O)C6=O)CC4)CC3)ncc2C1=O (some centres unmarked) [Compound 382] was run?
A: 10 to 100 nM

Q: And the Dmax (Table 3-1)?
A: > 80%

Q: How did the DC50 (Table 3-1) turn out when CC1(C)[C@H](Oc2ccc(C#N)c(Cl)c2)C(C)(C)[C@H]1N1Cc2nc(N3CCC(CN4CCN(c5ccc6c(c5)C(=O)N(C5CCC(=O)NC5=O)C6=O)CC4)CC3)ncc2C1=O (some centres unmarked) [Compound 383] was run?
A: 10 to 100 nM

Q: And the Dmax (Table 3-1)?
A: > 80%

Q: How did the DC50 (Table 3-1) turn out when CC1(C)[C@H](Oc2ccc(C#N)c(Cl)c2)C(C)(C)[C@H]1N1Cc2nc(N3CCC(CN4CCN(c5cc6c(cc5F)C(=O)N(C5CCC(=O)NC5=O)C6=O)CC4)CC3)cnc2C1=O (some centres unmarked) [Compound 384] was run?
A: < 10 nM

Q: And the Dmax (Table 3-1)?
A: 60 to 80%

Q: What does the source list for CC1(C)[C@H](Oc2ccc(C#N)c(Cl)c2)C(C)(C)[C@H]1N1Cc2nc(N3CCC(CN4CCN(c5ccc6c(c5)C(=O)N(C5CCC(=O)NC5=O)C6=O)CC4)CC3)cnc2C1=O (some centres unmarked) [Compound 385]?
A: DC50 (Table 3-2): 100 to 300 nM; Dmax (Table 3-2): 60 to 80%

Q: How did the DC50 (Table 3-2) turn out when CC1(C)[C@H](Oc2ccc(C#N)c(Cl)c2)C(C)(C)[C@H]1N1Cc2nc(C#CC3CCC(N4CC5CC4CN5c4cc5c(cc4F)C(=O)N(C4CCC(=O)NC4=O)C5=O)CC3)cnc2C1=O (some centres unmarked) [Compound 386] was run?
A: > 300 nM

Q: What about the Dmax (Table 3-2) of the same compound?
A: 40 to 60%

Q: For CC1(C)[C@H](Oc2ccc(C#N)c(Cl)c2)C(C)(C)[C@H]1N1Cc2nc(C#CC3CCC(N4CC5CC4CN5c4cc5c(cc4F)C(=O)N(C4CCC(=O)NC4=O)C5=O)CC3)cnc2C1=O (some centres unmarked) [Compound 387], which “Dmax (%)” value (Table 3-2) is on record?
A: + (<40%)

Q: And the DC50 (Table 3-2)?
A: > 300 nM

Q: CC1(C)[C@H](Oc2ccc(C#N)c(Cl)c2)C(C)(C)[C@H]1N1Cc2nc(C#CC3CCC(N4CC5CC4CN5c4ccc5c(c4)C(=O)N(C4CCC(=O)NC4=O)C5=O)CC3)cnc2C1=O (some centres unmarked) [Compound 388, 2-Chloro-4-((1r,3r)-3-(2-((4-(5-(2-(2,6-dioxopiperidin-3-yl)-1,3-dioxoisoindolin-5-yl)-2,5-diazabicyclo[2.2.1]heptan-2-yl)cyclohexyl)ethynyl)-5-oxo-5,7-dihydro-pyrrolo[3,4-b]pyrazine-26-yl)-2,2,4,4-tetramethylcyclobutoxy) benzonitrile] was tested. Which “Dmax (%)” value (Table 3-2) did it give?
A: ++ (60%-40%)

Q: And the DC50 (Table 3-2)?
A: 100 to 300 nM

Q: With CC1(C)[C@H](Oc2ccc(C#N)c(Cl)c2)C(C)(C)[C@H]1N1Cc2nc(C#CC3CCC(N4CC5CC4CN5c4ccc5c(c4)C(=O)N(C4CCC(=O)NC4=O)C5=O)CC3)cnc2C1=O (some centres unmarked) [Compound 389, 2-Chloro-4-((1r,3r)-3-(2-((4-(5-(2-(2,6-dioxopiperidin-3-yl)-1,3-dioxoisoindolin-5-yl)-2,5-diazabicyclo[2.2.1]heptan-2-yl)cyclohexyl)ethynyl)-5-oxo-5,7-dihydro-pyrrolo[3,4-b]pyrazine-26-yl)-2,2,4,4-tetramethylcyclobutoxy) benzonitrile] as the compound, how does the DC50 (Table 3-2) read?
A: > 300 nM

Q: What about the Dmax (Table 3-2) of the same compound?
A: < 40%

Q: What does the source list for CC1(C)[C@H](Oc2ccc(C#N)c(Cl)c2)C(C)(C)[C@H]1N1Cc2nc(C#C[C@H]3C[C@H](N4CCN(c5ccc6c(c5)C(=O)N(C5CCC(=O)NC5=O)C6=O)CC4)C3)cnc2C1=O (some centres unmarked) [Compound 390]?
A: DC50 (Table 3-2): < 10 nM; Dmax (Table 3-2): 60 to 80%

Q: How did the DC50 (Table 3-2) turn out when CC1(C)[C@H](Oc2ccc(C#N)c(Cl)c2)C(C)(C)[C@H]1N1Cc2nc(C#C[C@H]3C[C@H](N4CCN(c5cc6c(cc5F)C(=O)N(C5CCC(=O)NC5=O)C6=O)CC4)C3)cnc2C1=O (some centres unmarked) [Compound 391] was run?
A: 100 to 300 nM

Q: And the Dmax (Table 3-2)?
A: > 80%

Q: Which DC50 (Table 3-2) does the source give for COc1cc(O[C@H]2C(C)(C)[C@H](N3Cc4nc(C#C[C@H]5C[C@H](N6CCN(c7ccc8c(c7)C(=O)N(C7CCC(=O)NC7=O)C8=O)CC6)C5)ccc4C3=O)C2(C)C)ccc1C#N (some centres unmarked) [Compound 392] here?
A: 10 to 100 nM

Q: And the Dmax (Table 3-2)?
A: > 80%

Q: Which DC50 (Table 3-2) does the source give for COc1cc(O[C@H]2C(C)(C)[C@H](N3Cc4nc(C#C[C@H]5C[C@H](N6CCN(c7cc8c(cc7F)C(=O)N(C7CCC(=O)NC7=O)C8=O)CC6)C5)ccc4C3=O)C2(C)C)ccc1C#N (some centres unmarked) [Compound 393] here?
A: 10 to 100 nM

Q: What about the Dmax (Table 3-2) of the same compound?
A: > 80%

Q: With CC1(C)[C@H](Oc2ccc(C#N)c(Cl)c2)C(C)(C)[C@H]1N1Cc2nc(C#C[C@H]3C[C@H](N4CCN(c5cnn(C6CCC(=O)NC6=O)c(=O)c5)CC4)C3)ccc2C1=O (some centres unmarked) [Compound 394] as the compound, how does the DC50 (Table 3-2) read?
A: 10 to 100 nM

Q: What about the Dmax (Table 3-2) of the same compound?
A: 60 to 80%

Q: CC1(C)[C@H](Oc2ccc(C#N)c(Cl)c2)C(C)(C)[C@H]1N1Cc2nc(C#C[C@H]3C[C@H](N4CCN(c5cc(=O)n(C6CCC(=O)NC6=O)cn5)CC4)C3)ccc2C1=O (some centres unmarked) [Compound 395] was tested. Which DC50 (Table 3-2) did it give?
A: 100 to 300 nM

Q: What about the Dmax (Table 3-2) of the same compound?
A: 40 to 60%

Q: Which results are given for CC1(C)[C@H](Oc2ccc(C#N)c(Cl)c2)C(C)(C)[C@H]1N1Cc2nc(C#C[C@H]3C[C@H](N4CCN(c5ccc6c(=O)n(C7CCC(=O)NC7=O)cnc6c5)CC4)C3)ccc2C1=O (some centres unmarked) [Compound 396]?
A: DC50 (Table 3-2): 10 to 100 nM; Dmax (Table 3-2): > 80%

Q: How did the DC50 (Table 3-2) turn out when CC1(C)[C@H](Oc2ccc(C#N)c(Br)c2)C(C)(C)[C@H]1N1Cc2nc(C#C[C@H]3CC[C@H](N4CCN(c5cc6c(cc5F)C(=O)N(C5CCC(=O)NC5=O)C6=O)CC4)CC3)ccc2C1=O (some centres unmarked) [Compound 397] was run?
A: 10 to 100 nM

Q: What about the Dmax (Table 3-2) of the same compound?
A: > 80%
